Results taken from patent publication US9315513B2, “Benzimidazole derivatives and their pharmaceutical compositions and uses” (XUANZHU PHARMA CO., LTD., priority 2010, dated 2016).
“And” between values parts separate entries of the source, which are not always exact repeats. Equal values may be shown once. Where a name gives a salt, the structure may show the parent alone. Read-outs that look alike come from different tables or passages of the source.

Columns and labels:
[1] = tested on: gastric acid in pylorus ligated rats; assay: Inhibition effects on gastric acid in pylorus ligated rats; assay type: in vivo, Wistar rats; settings: for Inhibition effect on the gastric acid secretion in pylorus ligated rats (conclusion): in comparison with the solvent group
Experimental: Experimental animals: six-week old clean Wistar rats, male, 140-180 g.
Experimental samples: part of the compounds of the present invention, which structural formula and chemical name are shown in Table 1. […] Before test, these compounds were dissolved with physiological saline.
Pylorus was ligated by passing a suture beneath gastric pylorus, the drugs were immediately administered through duodenum, in which the solvent group was administered with physiological saline in 2 mL/kg, […] The animals were executed after 6 h, laparotomized, esophagus was ligated near to diaphragmatic muscle, whole stomach was taken out, washed to remove blood, stomach contents were poured out, the acidity degree of gastric acid was tested with pH test paper, the stomach contents was then centrifuged at 3000 rpm for 10 min. The volume of the supernatant was metered, and 1 mL of the supernatant was titrated with 0.01 mol/L NaOH solution, phenolphthalein was used as indicator, the volume of NaOH was recorded, and the total acidity degree and total acid output of gastric juice were calculated. Gastric juice total acidity degree (mmol/L)=consumed volume of NaOH solution (mL)*0.01 mol/L (NaOH concentration)/1 mL (supernatant volume)*1000; 1 h total acid output (mmol/h)=total acidity degree (mmol/L)*gastric juice volume (mL)/6 h/1000.

[2] = tested on: reflux esophagitis in rats; assay: Effects on reflux esophagitis in rats; assay type: in vivo, Wistar rats; set-up: Esophagitis index: scale not given here; settings: for Esophagitis index / Esophagus injury score / Injury status: 20 mg/kg through duodenum, 5 h; for Esophagitis index: 6 rats per group, average ± SD; for Esophagus injury score / Injury status: individual rats; for Protection effect on reflux esophagitis in rats (conclusion): in comparison with the model group
Experimental: The rats were etherized, laparotomized, pylorus ligated, and ligated at the part between glandular stomach and rumen. After ligation, the drugs were immediately administered through duodenum, in which the groups of the test samples were administered with test samples in 20 mg/kg, the model group was administered with the same volume of solvent, and the abdomens were then closed. The rats were released to the fasting cage, subjected to fasting and water deprivation for 5 h and then executed by air embolism. The stomach and esophagus were taken out together, fixed with 1% formaldehyde in esophagus for 1 h, and then the injury of esophagus was observed.

[3] = In vivo pharmacokinetic test in rats; set-up: species or system Wistar rats; settings: for clearance / half-life / Vd: iv
Experimental: Experimental animals: male Wistar rats, 6 rats/compound, body weight 180-220 g, purchased from Shandong University, certificate no.: SCXK ( ? ) 20090001.
Experimental samples: Compound 1, Compound 29 and Compound 30 of the present invention, each of them is prepared according to the methods of the above examples, and dissolved in physiological saline before test.
Administration: as for intravenous push (I.V), Compound 1, Compound 29, Compound 30 were administered in a dose of 5 mg/kg, and a volume of 2 mL/kg; as for intragastric administration (P.O), Compound 1, Compound 29, Compound 30 were administered in a dose of 5 mg/kg, and a volume of 2 mL/kg. The rats were fasted without water deprivation for […] administration, and fed after 4 hours from the administration.
Blood collection: 0 h, 0.083 h, 0.25 h, 0.5 h, 1 h, 2 h, 4 h, 8 h, 24 h, at each time point, about 150 μL of whole blood was collected, centrifuged at 4° C. and 8000 rpm for 6 min using a low-temperature high-speed centrifuge, the separated plasma was frozen and stored at −80° C. in a refrigerator.
Analysis of plasma samples: as for Compound 1, Compound 29, Compound 30, 50 μL of plasma was taken, added with 120 μL internal standard solution (Tolbutamide, 5 ng/mL MeOH solution), subjected to 1500 rpm vortex for 2 min, then centrifuged at 14000 rpm for 5 min, the supernatant was collected, and analyzed by using LC-MS/MS. Calculation formula: absolute bioavailability F %=[AUC]INF(PO)*Dose(IV)/[AUC]INF(IV)*Dose(PO)
Wherein, AUCINF represents area under drug-time curve0→∞; Cmax represents peak drug concentration in blood; Tmax represents a time for reaching peak drug concentration in blood; F % represents absolute bioavailability; CL represents clearance rate; Vss represents apparent volume of distribution; T1/2 represents half-life period.

gastric acid = settings: cited from earlier work
gastric acid secretion = settings: cited from earlier work
[4] = Table 3, 20 mg/kg through duodenum, 6 h after pylorus ligation
[5] = Table 3, 20 mg/kg through duodenum, 6 h after pylorus ligation, average ± SD
[6] = Table 4, 30 mg/kg through duodenum, 6 h
[7] = Table 4, 30 mg/kg through duodenum, 6 h, SD in neighbouring cell
[8] = Table 5, 20 mg/kg, comparison with Compound 81 as control
[9] = male, Wistar, rat, in vivo, 5 mg/kg
[10] = male, Wistar, rat, in vivo, po, 5 mg/kg

COCCCOc1ccnc(C[S+]([O-])c2nc3cc4c(cc3[nH]2)OCCO4)c1C (stereo not shown) [Compound 6 (sodium salt)]
Gastric juice volume [1, 4]: 10.28 mL | Total acid output [1, 4]: 0.0807 mmol/h | Total acidity degree [1, 4]: 103.16 mmol/L | Acidity degree (pH value) [1, 5]: 1.82 pH value | Esophagitis index [2]: 3.00 ± 1.27 | Esophagus injury score ([2]; 20 mg/kg, female rats): 4 (4 scores for injury area exceeding 75% or perforation) and 2 (2 scores for injury area of 25-50%) and 1 (1 score for injury area of 1-25%) | Esophagus injury score ([2]; 20 mg/kg, male rats): 3 (3 scores for injury area of 50-75%) and 4 (4 scores for injury area exceeding 75% or perforation) (2×)

COCCCOc1ccnc(C[S@+]([O-])c2nc3cc4c(cc3[nH]2)OCC4)c1C [Compound 29, (S)-2-[[[4-(3-methoxylpropoxy)-3-methyl-2-pyridyl]methyl]sulfinyl]-6,7-dihydro-3H-benzofuro[5,6-d]imidazole]
Gastric juice volume [1, 6]: 3.43 ± 1.11 mL | Volume of supernatant of gastric juice [1, 6]: 2.70 ± 1.04 mL | Acidity degree (pH value) [1, 7]: 3.75 pH value | Total acid output [1, 7]: 0.0178 mmol/h | Total acidity degree [1, 7]: 37.85 mmol/L | clearance ([3]; male, Wistar, rat, in vivo, rats, I.V, 5 mg/kg, read-out: CL (converted)): 21.4 mL/min/kg | half-life ([3]; male, Wistar, rat, in vivo, rats, I.V, 5 mg/kg, read-out: T½ (converted)): 13.4 min | Vd ([3]; male, Wistar, rat, in vivo, rats, I.V, 5 mg/kg, read-out: Vss): 0.289 L/kg | bioavailability ([3]; male, Wistar, rat, in vivo, po, rats, P.O 5 mg/kg vs I.V 5 mg/kg, read-out: F % (absolute bioavailability)): 49.2% | AUC(0-inf) ([3]; male, Wistar, rat, in vivo, po, rats, P.O, 5 mg/kg, read-out: AUCinf): 1740 ng·h/mL | Cmax ([3]; male, Wistar, rat, in vivo, po, rats, P.O, 5 mg/kg, read-out: Cmax): 5780 ng/mL | Tmax ([3]; male, Wistar, rat, in vivo, po, rats, P.O, 5 mg/kg, read-out: Tmax): 4.98 min | apparent oral clearance (CL/F) ([3]; rats, P.O, 5 mg/kg): 53.77 mL/min/kg | In vivo pharmacokinetic properties (conclusion) ([3]; rats, Tables 8 and 9): good in vivo pharmacokinetic properties

COCCCOc1ccnc(C[S+]([O-])c2nc3cc4c(cc3[nH]2)OCC4)c1C (stereo not shown) [Compound 1, 2-[[4-(3-methoxylpropoxy)-3-methylpyridin-2-yl]methylsulfinyl]-6,7-dihydro-3H-benzofuro[5,6-d]imidazole]
Inhibition effect on the gastric acid secretion in pylorus ligated rats (conclusion) ([1]; 20 mg/kg): significant inhibition effect | In vivo pharmacokinetic properties (conclusion) ([3]; rat, in vivo): good in vivo pharmacokinetic properties | Protection effect on reflux esophagitis in rats (conclusion) ([2]; 20 mg/kg): good protection effects on esophagus

COc1c(C)cnc(C[S+]([O-])c2nc3cc4c(cc3[nH]2)OCO4)c1C (stereo not shown) [Compound 81, reference compound]
Total acidity degree [1, 8]: 71.27 ± 16.51 mmol/L | Esophagitis index [2]: 0.83 ± 1.60 | Protection effect on reflux esophagitis in rats (conclusion) ([2]; 20 mg/kg): no protection effect | Injury status ([2]; 20 mg/kg): Normal | Esophagus injury score ([2]; 20 mg/kg, female rats): 0 (2×) and 1 (1 score for injury area of 1-25%) | Esophagus injury score ([2]; 20 mg/kg, male rats): 4 (4 scores for injury area exceeding 75% or perforation) and 0 (2×)

COCCCOc1ccnc(C[S+]([O-])c2nc3cc4c(cc3[nH]2)OCCO4)c1C (stereo not shown) [Compound 6, 2-[[4-(3-methoxylpropoxy)-3-methylpyridin-2-yl]methylsulfinyl]-6,7-dihydro-1H-[1,4]dioxino[2,3-f]benzo[d]imidazole]
Inhibition effect on the gastric acid secretion in pylorus ligated rats (conclusion) ([1]; 20 mg/kg): do not show inhibition effect | Protection effect on reflux esophagitis in rats (conclusion) ([2]; 20 mg/kg): no protection effect

COCCCOc1ccnc(C[S@@+]([O-])c2nc3cc4c(cc3[nH]2)OCC4)c1C [Compound 30 (sodium salt), (R)-2-[[[4-(3-methoxylpropoxy)-3-methyl-2-pyridyl]methyl]sulfinyl]-6,7-dihydro-3H-benzofuro[5,6-d]imidazole sodium]
Gastric juice volume [1, 6]: 3.60 ± 1.30 mL | Volume of supernatant of gastric juice [1, 6]: 2.87 ± 1.17 mL | Acidity degree (pH value) [1, 7]: 6.08 pH value | Total acid output [1, 7]: 0.0076 mmol/h | Total acidity degree [1, 7]: 17.21 mmol/L | Vd [3, 9]: 0.394 L/kg | clearance [3, 9]: 26.5 mL/min/kg | half-life [3, 9]: 16.5 min | AUC(0-inf) [3, 10]: 1260 ng·h/mL | CL [3, 10]: 83.5 mL/min/kg | Cmax [3, 10]: 3250 ng/mL | Tmax [3, 10]: 4.98 to 15 min | bioavailability [3, 10]: 39.3%

COCCCOc1ccnc(C[S+]([O-])c2nc3cc4c(cc3[nH]2)OCC4)c1C (stereo not shown) [Compound 1 (sodium salt)]
Gastric juice volume [1, 4]: 3.33 ± 0.97 mL | Total acid output [1, 4]: 0.0276 ± 0.0194 mmol/h | Total acidity degree [1, 4]: 47.85 ± 24.38 mmol/L | Acidity degree (pH value) [1, 5]: 3.14 ± 1.31 pH value | Gastric juice volume [1, 6]: 3.60 ± 0.88 mL | Volume of supernatant of gastric juice [1, 6]: 2.92 ± 0.71 mL | Acidity degree (pH value) [1, 7]: 3.90 pH value | Total acid output [1, 7]: 0.0141 mmol/h | Total acidity degree [1, 7]: 28.98 mmol/L | Total acidity degree [1, 8]: 54.52 ± 13.87 mmol/L | clearance ([3]; male, Wistar, rat, plasma, rats, I.V, 5 mg/kg, read-out: CL (converted)): 32.5 mL/min/kg | half-life ([3]; male, Wistar, rat, plasma, rats, I.V, 5 mg/kg, read-out: T½ (converted)): 10.3 min | Vd ([3]; male, Wistar, rat, plasma, rats, I.V, 5 mg/kg, read-out: Vss): 0.255 L/kg | bioavailability ([3]; male, Wistar, rat, plasma, po, rats, P.O 5 mg/kg vs I.V 5 mg/kg, read-out: F % (absolute bioavailability)): 26.2% | AUC(0-inf) ([3]; male, Wistar, rat, plasma, po, rats, P.O, 5 mg/kg, read-out: AUCinf): 677 ng·h/mL | Cmax ([3]; male, Wistar, rat, plasma, po, rats, P.O, 5 mg/kg, read-out: Cmax): 1860 ng/mL | Tmax ([3]; male, Wistar, rat, plasma, po, rats, P.O, 5 mg/kg, read-out: Tmax): 4.98 to 15 min | Esophagitis index [2]: 0.00 ± 0.00 | Esophagus injury score ([2]; female rats): 0 | Injury status ([2]; female rats): Normal | Esophagus injury score ([2]; male rats): 0 | Injury status ([2]; male rats): Normal

COCCCOc1ccnc(C[S@@+]([O-])c2nc3cc4c(cc3[nH]2)OCC4)c1C [Compound 30, (R)-2-[[[4-(3-methoxylpropoxy)-3-methyl-2-pyridyl]methyl]sulfinyl]-6,7-dihydro-3H-benzofuro[5,6-d]imidazole]
In vivo pharmacokinetic properties (conclusion) ([3]; rats, Tables 8 and 9): good in vivo pharmacokinetic properties

COc1c(C)cnc(C[S+]([O-])c2nc3cc4[nH]cnc4cc3[nH]2)c1C (stereo not shown) [Compound 8, 2-[(3,5-dimethyl-4-methoxylpyridin-2-yl)methylsulfinyl]-1H,5H-imidazo[5,4-f]benzo[d]imidazole]
Inhibition effect on the gastric acid secretion in pylorus ligated rats (conclusion) ([1]; 20 mg/kg): do not show inhibition effect | Gastric juice volume [1, 4]: 6.10 mL | Total acid output [1, 4]: 0.1242 mmol/h | Total acidity degree [1, 4]: 120.92 mmol/L | Acidity degree (pH value) [1, 5]: 1.71 pH value

COCCCOc1ccnc(C[S+]([O-])c2nc3ccccc3[nH]2)c1C (stereo not shown) [Rabeprazole]
Time to achieve the maximum acid inhibition effect (gastric acid): ≤ 5 min | Duration of action (gastric acid; compared with Omeprazole): shorter than that of Omeprazole | Activity against gastric acid secretion in vitro relative to Omeprazole (gastric acid secretion): 2-10 times
